Experimental data reported in patent US20240216410A1, “METHODS AND COMPOSITIONS FOR TREATING CANCER THERAPY-INDUCED NEUTROPENIC FEVER AND/OR GVHD” (BOARD OF REGENTS, THE UNIVERSITY OF TEXAS SYSTEM, priority 2021, published 2024).

What was measured:
[1] = test system: neutrophils and dendritic cells in the colon; assay: Murine GVHD model: colonic infiltration by neutrophils and dendritic cells; type: in vivo; conditions: meropenem-treated mice with GVHD
Source text: Altogether, these findings indicate that, in some cases, meropenem treatment leads to compromise of the colonic mucus layer, increased bacterial translocation and an aggravated inflammatory response.
Histological and immunohistochemistry analysis. […] Pathology scores were quantified by a blinded pathologist. […] Sections were imaged using an APERIO® AT2.
Lamina propria hematopoietic cell dissociation. Murine colons were isolated, dissected longitudinally and then on a shaker in 2% fetal bovine serum in PBS with 1 mM DL-dithiothreitol (Bioworld) at 37 °C for 20 min and subsequently incubated with 1.3 mM EDTA at 37° C. for 40 min. They were rinsed twice and digested with 0.3 mg/ml of type IV collagenase (C5138, SIGMA-ALDRICH®) at 37 °C for 45 min, homogenized, filtered, and washed.
Flow cytometric analysis. Monoclonal antibodies conjugated with fluorescein isothiocynate, phycoerythrin, phycoerythrin-Cy7, peridinin-chlorophyll protein complexes, allophycocyanin, or allophycocyanin-Cy7 were purchased from Tonbo Biosciences (San Diego, CA), EBIOSCIENCE™ (San Diego, CA), or BIOLEGEND® (San Diego, CA.). […] In flow cytometric analysis, at least 100,000 live samples were analyzed using BD LSRFORTESSA™ X-20 (BD Biosciences) and FlowJo software (Trec Star, OR). […]

intestinal microbiome = assay: allo-HSCT patients who underwent intestinal microbiome profiling (meropenem-treated vs untreated); type: in vivo, human
Experimental: Next, the effects of meropenem on the composition of the colonic microbiota of transplanted patients and mice were investigated. Fecal specimens were collected from HSCT patients transplanted from 2014 to 2019 and 44 patients were identified who were treated with allo-HSCT following conditioning with fludarabine and busulfan.
Fecal samples collected at baseline following hospital admission around day −7 as well as on day 14 following allo-HSCT were examined (FIG. 15A). […] A paired differential abundance analysis was then performed, asking which bacterial genera were the most changed from baseline in the two subgroups of patients.
Retrospective study design.
Sequencing of 16S rRNA gene amplicons. Fecal samples from patients and mice were weighed before DNA isolation. In brief, genomic DNA was isolated using the QIAAMP® DNA mini kit (51306, QIAGEN®) according to the manufacturer's protocol that was modified to include an intensive bead-beating lysis step. The V4 region of 16S rRNA gene was amplified by PCR from 100 ng of each of extracted and purified genomic DNA using 515 forward and 806 reverse primer pairs (59). The quality and quantity of the barcoded amplicons were assessed on an Agilent 4200 TapeStation system (Agilent) and QUBIT™ Fluorometer (THERMO FISHER […]™), and libraries were prepared after pooling at equimolar ratios. The final libraries were purified using […]® gel extraction kit (28706X4, QIAGEN®) and sequenced with a 2×250 base pair paired-end protocol on the […]® MISEQ™ platform.
Microbiome data analysis. Sequencing data from paired-end reads were de-multiplexed using QIIME 2 (60). Merging of paired-end reads, dereplicating, and length filtering was performed using VSEARCH 2.17.1 (61). Following de-noising and chimera calling using the unoise3 command (62), unique sequences were taxonomically classified with mothur (63) using the Silva database (64) version 138. Weighted UniFrac distances (65) were determined using QIIME 2, visualized using principal coordinate analysis, and evaluated for statistical significance using permutational multivariate analysis of variance (PERMANOVA) testing. For differential abundance analysis, abundances of sequences belonging to taxonomical groups were included for analysis using the Mann-Whitney U test and adjusted for multiple comparisons using the method of Benjamini and Hochberg. Paired samples were analyzed using the Wilcoxon signed rank test with adjustment for multiple comparisons.

[2] = 44 microbiome-profiled patients, meropenem days −10 to 14

C[C@@H](O)[C@H]1C(=O)N2C(C(=O)O)=C(S[C@@H]3CN[C@H](C(=O)N(C)C)C3)[C@H](C)[C@H]12 [meropenem]
colonic tissue infiltration by neutrophils and dendritic cells [1]: marked colonic tissue infiltration by neutrophils and dendritic cells | Acute GVHD Grade 0, number of patients (intestinal microbiome; [2]): 7 | Acute GVHD Grade 0, percentage of patients (intestinal microbiome; [2]): (38%) | Acute GVHD Grade I, number of patients (intestinal microbiome; [2]): 0 | Acute GVHD Grade I, percentage of patients (intestinal microbiome; [2]): (0%) | Acute GVHD Grade II, number of patients (intestinal microbiome; [2]): 7 | Acute GVHD Grade II, percentage of patients (intestinal microbiome; [2]): (38%) | Acute GVHD Grade III-IV, number of patients (intestinal microbiome; [2]): 4 | Acute GVHD Grade III-IV, percentage of patients (intestinal microbiome; [2]): (22%) | bacterial genera most changed from baseline (paired differential abundance) (intestinal microbiome; fecal samples pre-HSCT vs day 14): significant expansion of bacteria from the genus Bacteroides | survival after allo-HSCT (meropenem in drinking water days 3 to 15 vs control allo-HSCT mice): significantly worsened survival | GVHD histological scores in the colon (mouse, in vivo): significantly higher | GVHD histology in the small intestine and liver (mouse, in vivo): not substantially different | epithelial damage in the colon (H&E) (mouse, in vivo): severe epithelial damage in the colon
